Target: T1, intestinal bile acid transportation system (Na^+ -dependent) in brush border membrane vesicles of the ileum (Oryctolagus cuniculus, UniProt Q28727)
T1 construct: Brush border membrane vesicles were prepared from the intestinal cells of the small intestine; from tissue; host or cells: brush border membrane vesicles from the terminal 7/10 of the small intestine (ileum) of male New Zealand rabbits
T1 sequence (Q28727 1-347): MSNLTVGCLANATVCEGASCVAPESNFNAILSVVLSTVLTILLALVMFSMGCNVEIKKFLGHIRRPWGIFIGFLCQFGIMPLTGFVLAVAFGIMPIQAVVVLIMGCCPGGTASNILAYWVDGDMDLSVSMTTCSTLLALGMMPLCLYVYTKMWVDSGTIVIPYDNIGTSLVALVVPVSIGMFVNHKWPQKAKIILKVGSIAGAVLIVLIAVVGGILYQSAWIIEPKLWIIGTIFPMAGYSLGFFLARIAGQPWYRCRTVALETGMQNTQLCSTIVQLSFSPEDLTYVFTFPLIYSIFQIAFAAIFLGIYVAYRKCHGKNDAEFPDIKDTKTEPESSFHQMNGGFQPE
Experiment: Inhibition of [^3 H]-taurocholate uptake in brush border membrane vesicles of the ileum of rabbits
Format: biochemical, rabbit
Conditions: 50 μM taurocholate, usually 1 minute; for IC50Na TCDC / IC50Na -substance: quotient of IC50Na of reference taurochenodeoxycholate (TCDC) and IC50Na of test substance, Na^+ -dependent transportation content (Na-T-B minus K-T-B); for IC50 -TCDC / IC50 -substance: quotient of IC50 of reference taurochenodeoxycholate (TCDC) and IC50 of test substance, [^3 H]-taurocholate uptake
Procedure: The compounds according to the invention were tested biologically by determination of the inhibition of [^3 H]-taurocholate uptake in brush border membrane vesicles of the ileum of rabbits. The inhibition test was carried out as follows:
1. Preparation of Brush Border Membrane Vesicles from the Ileum of Rabbits
Brush border membrane vesicles were prepared from the intestinal cells of the small intestine by the so-called Mg^2+ precipitation method. Male New Zealand rabbits (2 to 2.5 kg bodyweight) were sacrificed by intravenous injection of 0.5 ml of an aqueous solution of 2.5 mg Tetracain HCl, 100 T61^R and 25 mg of mebezonium iodide. The small intestine was rinsed with ice-cold physiological saline solution. The terminal […] of the small intestine (measured in the oral-rectal direction, i.e. the terminal ileum, which contains the active Na^+ -dependent bile acid transportation system) was used for preparation of the brush border membrane vesicles. The intestines were frozen in plastic bags under nitrogen at -80° C. For preparation of the membrane vesicles, the frozen intestines were […] at 30° C. in a water-bath. The mucosa was scraped off and suspended in 60 ml of ice-cold 12 mM Tris/HCl buffer (pH 7.1)/300 mM mannitol, 5 mM EGTA/10 mg/l of phenylmethylsulfonylfluoride/1 mg/l of trypsin inhibitor for soya beans (32 U/mg)/0.5 mg/l of trypsin inhibitor from bovine lung (193 U/mg)/5 mg/l of bacitracin. After dilution to 300 ml with ice-cold distilled water, the mixture was homogenized with an Ultraturrax (18-rod, IKA Werk Staufen, FRG) for 3 minutes at 75 % of the maximum power, while cooling with ice. After addition of 3 ml of 1M MgCl2 solution (final concentration 10 mM), the mixture was left to stand at 0° C. for exactly 1 minute. By addition of Mg^2+, the cell membranes aggregate and precipitate, with the exception of the brush border membranes. After centrifugation at 3000×g (5000 revolutions per minute, SS-34 rotor) for 15 minutes, the precipitate is discarded and the supernatant, which contains the brush border membranes, was centrifuged at […] (15000 revolutions per minute, SS-34 rotor) for 30 minutes. The supernatant was discarded and the precipitate was rehomogenized in 60 ml of 12 mM tris/HCl buffer (pH 7.1)/60 mM mannitol, 5 mM EGTA using a Potter Elvejhem homogenizer (Braun, Melsungen, 900 revolutions per minute, 10 strokes). After addition of 0.1 ml of 1M MgCl2 solution and an incubation time of 15 minutes at 0° C., the mixture was centrifuged again at 3000×g for 15 minutes. The supernatatant was then centrifuged again at 46000×g (15000 revolutions per minute, SS-34 rotor) for 30 minutes. The precipitate was taken up in 30 ml of 10 mM Tris/Hepes buffer (pH 7.4)/300 mM mannitol and resuspended homogeneously by 20 strokes in a Potter Elvejhem homogenizer at 1000 revolutions per minute. After centrifugation at 48000×g (20000 revolutions per minute, SS-34 rotor) for 30 minutes, the precipitate was taken up in 0.5 to 2 ml of Tris/Hepes buffer (pH 7.4)/280 mM mannitol (final concentration 20 mg/ml) and resuspended with the aid of a tuberculin syringe with a 27 gauge needle. The vesicles were either used for transportation studies immediately after preparation or stored at -196° C. in 4 mg portions in liquid nitrogen.
2. Inhibition of the Na^+ -dependent [^3 H]-taurocholate Uptake in the Brush Border Membrane Vesicles of the Ileum
The uptake of substrates into the brush border membrane vesicles described above was determined by means of the so-called membrane filtration technique. 10 μl of the vesicle suspension (100 μg of protein) were pipetted as drops onto the wall of a polystyrene incubation tube (11×70 mm) which contained the incubation medium with the corresponding ligands (90 μl). […]

Compound	IC50Na TCDC / IC50Na -substance	IC50 -TCDC / IC50 -substance
C[C@H](Cc1nn[nH]n1)[C@H]1CC[C@H]2[C@@H]3[C@H](O)C[C@@H]4C[C@H](O)CC[C@]4(C)[C@H]3C[C@H](O)[C@]12C [Example 4]	0.38	0.28
CC(CCCc1nn[nH]n1)C1CCC2C3C(O)CC4CC(O)CCC4(C)C3CC(O)C12C (centres unmarked) [Example 14]	1.35	1.20
C[C@H](CCCc1nn[nH]n1)[C@H]1CC[C@H]2[C@@H]3[C@H](O)C[C@@H]4C[C@@H](OCCO)CC[C@]4(C)[C@H]3C[C@H](O)[C@]12C [Example 16]	0.25	0.26
C[C@H](CCC(=O)N[C@H]1CC[C@@]2(C)[C@@H](C1)C[C@@H](O)[C@@H]1[C@@H]2C[C@H](O)[C@]2(C)[C@@H]([C@H](C)CCC(=O)Nc3nn[nH]n3)CC[C@@H]12)[C@H]1CC[C@H]2[C@@H]3[C@H](O)C[C@@H]4C[C@H](O)CC[C@]4(C)[C@H]3C[C@H](O)[C@]12C [Example 22]	1.35	1.66
C[C@H](CCC(=O)Nc1nn[nH]n1)[C@H]1CC[C@H]2[C@@H]3[C@H](O)C[C@@H]4C[C@H](O)CC[C@]4(C)[C@H]3C[C@H](O)[C@]12C [Example 24]	1.27	0.97
C[C@H](CCC(=O)NCCO[C@H]1CC[C@@]2(C)[C@@H](C1)C[C@@H](O)[C@@H]1[C@@H]2C[C@H](O)[C@]2(C)[C@@H]([C@H](C)CCCc3nn[nH]n3)CC[C@@H]12)[C@H]1CC[C@H]2[C@@H]3[C@@H](O)C[C@@H]4C[C@H](O)CC[C@]4(C)[C@H]3CC[C@]12C [Example 27]	0.25	0.26
C[C@H](CCC(=O)NCc1nn[nH]n1)[C@H]1CC[C@H]2[C@@H]3[C@H](O)C[C@@H]4C[C@H](O)CC[C@]4(C)[C@H]3C[C@H](O)[C@]12C [Example 29]	0.48	0.46

Source: US5466815A, “Tetrazole derivatives of bile acids, and their use as lipid level lowering medicaments” (Hoechst Aktiengesellschaft, priority 1993, dated 1995)
